Assay results as given in patent US9289398B2, “Methods for the production of functional protein from DNA having a nonsense mutation and the treatment of disorders associated therewith” (PTC Therapeutics, Inc., priority 2006, dated 2016).
Read-outs that look alike come from different tables or passages of the source.

Assays:
Format in all cases: in vivo, human
[1] = Pulmonary function tests (FEV1, FVC), CF Phase 2 study
Method: Pulmonary function tests, including FEV1, FVC, and MEF25-75, are measured using standard spirometry procedures. Assessments of pulmonary function (including MEF25-75, FVC, and, particularly, FEV1) have been acknowledged as definitive clinical endpoints in patients with CF (Food and Drug Administration, 62nd Anti-Infective Drugs Advisory Committee. Discussion of NDA for tobramycin solution for inhalation (Tobi®) for the management of cystic fibrosis patients. November, 1997; Tiddens, 2002, Pediatr. Pulmonol. 34(3): 228-31). […] Pulmonary function testing is simple to administer (even in patients as young as 7 years of age), and uses standardized equipment and techniques that are widely available. Interpretation is performed using well-established normative equations that account for patient age, height, and gender.
Clinical endpoints were evaluated using the procedures set forth above. TEPD measurements were made prior to treatment and on days 14 and 28 of Cycle 1 and Cycle 2. Nasal mucosal curettage was collected from each nostril of each patient prior to treatment and on days 14 and 28 of Cycle 1 and Cycle 2. Pulmonary tests, including FEV1, FVC and MEF25-75, were measured prior to treatment, on day −1 of Cycle 2, on day 13 or 14 of Cycle 1 and day 13 or 14 of Cycle 2 in the study being conducted in Israel and the same parameters were measured prior to treatment and on day 13 or 14 of Cycle 2 in the study being conducted in the United States.
Statistically significant results and positive trends for secondary endpoints were also observed. In particular, although the trials were not been powered to detect statistical significant changes in secondary endpoints, statistically significant improvements from study entry to the end of the higher-dose treatment cycle in the patients' mean FEV1, FVC and weight were observed.

[2] = Pharmacokinetics, CF Phase 2 preliminary analysis; conditions: for Cmax / AUC(0-t): both sexes, human, in vivo, oral; for AUC(0-t): read-out: AUC0-24
Description: 3-[5-(2-Fluoro-phenyl)-[1,2,4]oxadiazol-3-yl]-benzoic acid was provided in a formulation described herein.
The 3-[5-(2-fluoro-phenyl)-[1,2,4]oxadiazol-3-yl]-benzoic acid interim PK parameters from these 15 patients are described in Table 17.

[3] = Plasma exposure, additional DMD Phase 2 study
Method: 3-[5-(2-fluoro-phenyl)-[1,2,4]oxadiazol-3-yl]-benzoic acid was administered orally for 28 days at dose levels of 4, 4, 8 mg/kg (low dose); 10, 10, 20 mg/kg (mid dose); and 20, 20, 40 mg/kg (high dose) after breakfast, lunch, and dinner, respectively. 26 boys (ages: 5-13 years; stop codons: 15 UGA, 6 UAG, 5 UAA; baseline serum CK: 8,645-49,500 IU; steroid use: 19/26) completed 3-[5-(2-fluoro-phenyl)-[1,2,4]oxadiazol-3-yl]-benzoic acid at the low (n=6) or mid (n=20) dose levels. […] Compliance was >98% for both dose levels. Day 1 and Day 28 PK indicate stable plasma exposures over time; however, exposures were lower than in 3-[5-(2-fluoro-phenyl)-[1,2,4]oxadiazol-3-yl]-benzoic acid-treated healthy adult volunteers and cystic fibrosis patients. […] Relative to baseline, post-treatment increases in in vivo dystrophin expression occurred in 4/6 (67%) (90% CI 27-94%) and 10/20 (50%) (90% C1-30-70%) boys at low and mid doses, respectively.
3-[5-(2-fluoro-phenyl)[1,2,4]oxadiazol-3-yl]-benzoic acid safely induces full-length dystrophin expression in vitro and in vivo and decreases serum CK levels in boys with nonsense-mutation-mediated DMD. […] Evaluation at the high dose level in 12 additional boys is ongoing.

[4] = study entry to end of higher dose treatment, percentage of normal
[5] = 8 mg/kg, Cycle 1 lower dose 4, 4, 8 mg/kg, Day 1, N = 15, mean
[6] = 8 mg/kg, Cycle 1 lower dose 4, 4, 8 mg/kg, Day 14, N = 15, mean
[7] = 20 mg/kg, Cycle 2 higher dose 10, 10, 20 mg/kg, Day 1, N = 15, mean
[8] = 20 mg/kg, Cycle 2 higher dose 10, 10, 20 mg/kg, Day 14, N = 15, mean

- Differences in PK parameters by gender ([2]; 15 CF patients): No differences
- Cmin ([2]; Cycle 1 lower dose 4, 4, 8 mg/kg, Day 1, N = 15, mean): 1600 ng/mL
- Cmin ([2]; Cycle 1 lower dose 4, 4, 8 mg/kg, Day 14, N = 15, mean): 1900 ng/mL
- Cmin ([2]; Cycle 2 higher dose 10, 10, 20 mg/kg, Day 1, N = 15, mean): 5000 ng/mL
- Cmin ([2]; Cycle 2 higher dose 10, 10, 20 mg/kg, Day 14, N = 15, mean): 6500 ng/mL
- Cmax [2, 5]: 16000 ng/mL
- AUC(0-t) [2, 5]: 145 µg·h/mL
- Cmax [2, 6]: 13000 ng/mL
- AUC(0-t) [2, 6]: 124 µg·h/mL
- Cmax [2, 7]: 41000 ng/mL
- AUC(0-t) [2, 7]: 435 µg·h/mL
- Cmax [2, 8]: 36000 ng/mL
- AUC(0-t) [2, 8]: 417 µg·h/mL
- Plasma exposures over time ([3]; Day 1 and Day 28 PK): stable
- Plasma exposures relative to treated healthy adult volunteers and cystic fibrosis patients ([3]; boys with DMD): lower
Compound: O=C(O)c1cccc(-c2noc(-c3ccccc3F)n2)c1 [3-[5-(2-fluoro-phenyl)-[1,2,4]oxadiazol-3-yl]-benzoic acid]
- Mean FEV1, End of Higher Dose Treatment ([1]; percentage of normal for gender, age and height, study entry 65.8%, one patient not included): 69.1%
- Mean FVC, End of Higher Dose Treatment ([1]; percentage of normal for gender, age and height, study entry 80.2%, one patient not included): 85.1%
- Mean FEV1, Change [1, 4]: 3.3%
- Mean FVC, Change [1, 4]: 4.9%
- Plasma exposures relative to those associated with maximal preclinical activity ([3]; low and mid dose levels): did not achieve plasma exposures associated with maximal preclinical activity
